Experimental data reported in patent publication US11613522B2, “Herbicidally active 3-phenylisoxazoline-5-carboxamides of tetrahydro- and dihydrofurancarboxamides” (BAYER AKTIENGESELLSCHAFT, priority 2017, dated 2023).

Assays:
Format in all cases: in vivo
Pharbitis purpurea [1] = assay: Post-emergence herbicidal activity against PHBPU; details: Ipomoea purpurea, 504 h, dosage 320 g/ha, rated visually after about 3 weeks
Outline: (§1)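 Weeds grown in sandy loam in greenhouse, treated at one-leaf stage (2–3 weeks after sowing) by spraying WP or EC formulations as aqueous suspension/emulsion with 0.5% additive at 600 l/ha. Activity rated visually about 3 weeks later versus untreated controls (100% = plants dead, 0% = like control).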

Cyperus esculentus = assay: Pre-emergence herbicidal activity against CYPES; details: dosage 80 g/ha, scored visually after about 3 weeks vs untreated controls
Source text: (§2) 1. Pre-emergence herbicidal action against harmful plants and crop plant compatibility Seeds of monocotyledonous and dicotyledonous weed plants and crop plants are placed in plastic or wood fiber pots and covered with soil. The compounds of the invention, formulated in the form of wettable powders (WP) or as emulsion concentrates (EC), are then applied onto the surface of the covering soil as aqueous suspension or emulsion with addition of 0.5% additive at a water application rate of 600 l/ha (converted). After the treatment, the pots are placed in a greenhouse and kept under good growth conditions for the trial plants. After about 3 weeks, the effect of the preparations is scored visually in comparison with untreated controls as percentages. For example, 100% activity=the plants have died, 0% activity=like control plants. [table]

Stellaria media [2] = assay: Post-emergence herbicidal activity against STEME; details: Stellaria media, 504 h, dosage 320 g/ha, rated visually after about 3 weeks
Outline: as §1

Hordeum murinum [3] = assay: Pre-emergence herbicidal activity against HORMU; details: Hordeum murinum, 504 h, dosage 80 g/ha
Outline: (§3)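 Visual percent rating against untreated controls after roughly 3 weeks in the greenhouse, 0% meaning control-like and 100% dead plants. Treatment was pre-emergence: WP or EC formulations sprayed onto covering soil at 600 l/ha water volume with 0.5% additive.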

Hordeum murinum [4] = assay: Post-emergence herbicidal activity against HORMU; details: Hordeum murinum, 504 h, dosage 320 g/ha, rated visually after about 3 weeks
Outline: as §1

Pharbitis purpurea [5] = assay: Pre-emergence herbicidal activity against PHBPU; details: dosage 80 g/ha, scored visually after about 3 weeks vs untreated controls
Source text: as §2

Amaranthus retroflexus [6] = assay: Post-emergence herbicidal activity against AMARE; details: Amaranthus retroflexus, 504 h, dosage 320 g/ha, rated visually after about 3 weeks
Outline: as §1

Veronica persica [7] = assay: Pre-emergence herbicidal activity against VERPE; details: Veronica persica, 504 h, dosage 80 g/ha
Outline: as §3

Setaria viridis [8] = assay: Post-emergence herbicidal activity against SETVI; details: Setaria viridis, 504 h, dosage 320 g/ha, rated visually after about 3 weeks
Outline: as §1

Polygonum convolvulus [9] = assay: Pre-emergence herbicidal activity against POLCO; details: Fallopia convolvulus, 504 h, dosage 80 g/ha, scored visually after about 3 weeks vs untreated controls
Outline: as §3

Avena fatua [10] = assay: Pre-emergence herbicidal activity against AVEFA; details: Avena fatua, 504 h, dosage 80 g/ha, scored visually after about 3 weeks vs untreated controls, read-out: Pre-emergence herbicidal activity in % against AVEVA (AVEFA)
Outline: as §3

Veronica persica [11] = assay: Post-emergence herbicidal activity against VERPE; details: Veronica persica, 504 h, dosage 320 g/ha, rated visually after about 3 weeks
Outline: as §1

Viola tricolor [12] = assay: Post-emergence herbicidal activity against VIOTR; details: Viola tricolor, 504 h, dosage 320 g/ha, rated visually after about 3 weeks
Outline: as §1

Setaria viridis [13] = assay: Pre-emergence herbicidal activity against SETVI; details: Setaria viridis, 504 h, dosage 80 g/ha, scored visually after about 3 weeks vs untreated controls
Outline: as §3

Stellaria media [14] = assay: Pre-emergence herbicidal activity against STEME; details: Stellaria media, 504 h, dosage 80 g/ha, scored visually after about 3 weeks vs untreated controls
Outline: as §3

Lolium rigidum [15] = assay: Post-emergence herbicidal activity against LOLRI; details: Lolium rigidum, 504 h, dosage 320 g/ha, rated visually after about 3 weeks
Outline: as §1

[16] = Pre-emergence herbicidal action against harmful plants (summary of the tables); details: 504 h, application rate of 0.08 kg of active substance or less per hectare, read-out: herbicidal action, pre-emergence treatment (very good activity)
Source text: as §2, with “plants.” for “plants. [table]”
As shown by the results, compounds according to the invention such as, for example, the compounds No. I-02 and other compounds from the tables (I-05, I-10, I-11, I-12, I-13, I-14, I-15, I-16, I-17, I-18, I-19, I-20, I-21, I-22, I-23, I-24, I-25, I-26, I-27, I-28, I-29) have, when used for pre-emergence treatment, very good activity (80% to 100% herbicidal action) against harmful plants such as Abutilon theophrasti, Alopecurus myosuroides, Amaranthus retroflexus, Avena fatua, Cyperus esculentus, Echinochloa crus-galli, Hordeum murinum, Lolium rigidum, Pharbitis purpurea, Polygonum convolvulus, Setaria viridis, Stellaria media, Veronica persica and Viola tricolor at an application rate of 0.08 kg of active substance or less per hectare.

Alopecurus myosuroides [17] = assay: Pre-emergence herbicidal activity against ALOMY; details: Alopecurus myosuroides, 504 h, dosage 80 g/ha, scored visually after about 3 weeks vs untreated controls
Outline: as §3

Alopecurus myosuroides [18] = assay: Post-emergence herbicidal activity against ALOMY; details: Alopecurus myosuroides, 504 h, dosage 320 g/ha, rated visually after about 3 weeks
Outline: as §1

Abutilon theophrasti [19] = assay: Post-emergence herbicidal activity against ABUTH; details: Abutilon theophrasti, 504 h, dosage 320 g/ha, rated visually after about 3 weeks
Outline: as §1

Echinochloa crus-galli [20] = assay: Post-emergence herbicidal activity against ECHCG; details: Echinochloa crus-galli, 504 h, dosage 320 g/ha, rated visually after about 3 weeks
Outline: as §1

Echinochloa crus-galli [21] = assay: Pre-emergence herbicidal activity against ECHCG; details: Echinochloa crus-galli, 504 h, dosage 80 g/ha, scored visually after about 3 weeks vs untreated controls
Outline: as §3

Lolium rigidum [22] = assay: Pre-emergence herbicidal activity against LOLRI; details: Lolium rigidum, 504 h, dosage 80 g/ha, scored visually after about 3 weeks vs untreated controls
Outline: as §3

Amaranthus retroflexus [23] = assay: Pre-emergence herbicidal activity against AMARE; details: Amaranthus retroflexus, 504 h, dosage 80 g/ha, scored visually after about 3 weeks vs untreated controls
Outline: as §3

Viola tricolor [24] = assay: Pre-emergence herbicidal activity against VIOTR; details: Viola tricolor, 504 h, dosage 80 g/ha, scored visually after about 3 weeks vs untreated controls
Outline: as §3

Avena fatua [25] = assay: Post-emergence herbicidal activity against AVEFA; details: Avena fatua, 504 h, dosage 320 g/ha, rated visually after about 3 weeks
Outline: as §1

Abutilon theophrasti [26] = assay: Pre-emergence herbicidal activity against ABUTH; details: dosage 80 g/ha, scored visually after about 3 weeks vs untreated controls
Source text: as §2

Polygonum convolvulus [27] = assay: Post-emergence herbicidal activity against POLCO; details: Fallopia convolvulus, 504 h, dosage 320 g/ha, rated visually after about 3 weeks
Outline: as §1

| SMILES | pest or weed control at 320 g/ha (Pharbitis purpurea [1]) [%] | pest or weed control at 320 g/ha (Stellaria media [2]) [%] | pest or weed control at 80 g/ha (Hordeum murinum [3]) [%] | Pre-emergence herbicidal activity in % against PHBPU (Pharbitis purpurea [5]) [%] | pest or weed control at 80 g/ha (Veronica persica [7]) [%] | pest or weed control at 320 g/ha (Setaria viridis [8]) [%] | pest or weed control at 80 g/ha (Polygonum convolvulus [9]) [%] | pest or weed control at 80 g/ha (Avena fatua [10]) [%] | pest or weed control at 320 g/ha (Veronica persica [11]) [%] | pest or weed control at 320 g/ha (Viola tricolor [12]) [%] | pest or weed control at 80 g/ha (Setaria viridis [13]) [%] | pest or weed control at 80 g/ha (Stellaria media [14]) [%] | pest or weed control at 320 g/ha (Lolium rigidum [15]) [%] | pest or weed control at 80 g/ha [16] [%] | pest or weed control at 80 g/ha (Alopecurus myosuroides [17]) [%] | pest or weed control at 320 g/ha (Alopecurus myosuroides [18]) [%] | pest or weed control at 320 g/ha (Echinochloa crus-galli [20]) [%] | pest or weed control at 80 g/ha (Echinochloa crus-galli [21]) [%] | pest or weed control at 80 g/ha (Lolium rigidum [22]) [%] | pest or weed control at 80 g/ha (Amaranthus retroflexus [23]) [%] | also measured |
| --- | --- | --- | --- | --- | --- | --- | --- | --- | --- | --- | --- | --- | --- | --- | --- | --- | --- | --- | --- | --- | --- |
| CC1(C(=O)NC2COCC2C(=O)N2CCCC2)CC(c2cc(F)cc(F)c2)=NO1 (stereo not shown) [Example I-09, 3-(3,5-difluorophenyl)-5-methyl-N-[4-(pyrrolidine-1-carbonyl)tetrahydrofuran-3-yl]-4H-isoxazole-5-carboxamide] | 80 |  |  |  |  |  |  |  |  |  |  |  |  |  |  |  |  |  |  |  | Pre-emergence herbicidal activity in % against CYPES (Cyperus esculentus): 100% |
| C=C[C@]1(C(=O)N[C@@H]2CO[C@H](C(=O)NS(C)(=O)=O)C2)CC(c2cc(F)cc(F)c2)=NO1 (mixture of isomers) [Example I-16, (5S)-3-(3,5-difluorophenyl)-N-[cis-5-(methylsulfonylcarbamoyl)tetrahydrofuran-3-yl]-5-vinyl-4H-isoxazole-5-carboxamide] | 80 | 90 | 100 | 90 | 90 | 80 | 100 | 100 | 80 | 80 | 100 | 100 | 90 | 80 to 100 | 100 | 90 | 90 | 100 | 100 | 100 | pest or weed control at 320 g/ha (Hordeum murinum [4]): 80%; pest or weed control at 320 g/ha (Amaranthus retroflexus [6]): 90%; Pre-emergence herbicidal activity in % against CYPES (Cyperus esculentus): 100%; pest or weed control at 320 g/ha (Abutilon theophrasti [19]): 80%; pest or weed control at 80 g/ha (Viola tricolor [24]): 100% |
| C=C[C@]1(C(=O)N[C@@H]2CO[C@H](C(=O)N(C)C)C2)CC(c2cc(F)cc(F)c2)=NO1 (mixture of isomers) [Example I-17, (5S)-3-(3,5-difluorophenyl)-N-[cis-5-(dimethylcarbamoyl)tetrahydrofuran-3-yl]-5-vinyl-4H-isoxazole-5-carboxamide] | 80 | 90 | 100 | 90 | 100 | 90 | 100 | 100 | 80 | 80 | 100 | 100 | 90 | 80 to 100 | 90 | 90 | 80 | 100 | 100 | 100 | pest or weed control at 320 g/ha (Avena fatua [25]): 90%; pest or weed control at 320 g/ha (Hordeum murinum [4]): 80%; Pre-emergence herbicidal activity in % against ABUTH (Abutilon theophrasti [26]): 80%; pest or weed control at 320 g/ha (Amaranthus retroflexus [6]): 90%; pest or weed control at 320 g/ha (Polygonum convolvulus [27]): 80%; pest or weed control at 80 g/ha (Viola tricolor [24]): 100% |
| C=C[C@]1(C(=O)N[C@@H]2CO[C@H](C(=O)NOC)C2)CC(c2cc(F)cc(F)c2)=NO1 (mixture of isomers) [Example I-11, (5S)-3-(3,5-difluorophenyl)-N-[cis-5-(methoxycarbamoyl)tetrahydrofuran-3-yl]-5-vinyl-4H-isoxazole-5-carboxamide] | 80 | 90 | 90 | 90 | 90 | 90 | 100 | 100 | 80 | 80 | 100 | 100 | 90 | 80 to 100 | 100 | 90 | 90 | 100 | 100 | 100 | pest or weed control at 320 g/ha (Avena fatua [25]): 90%; Pre-emergence herbicidal activity in % against ABUTH (Abutilon theophrasti [26]): 100%; pest or weed control at 320 g/ha (Abutilon theophrasti [19]): 80%; pest or weed control at 320 g/ha (Polygonum convolvulus [27]): 80%; pest or weed control at 80 g/ha (Viola tricolor [24]): 100% |
| CNC(=O)C1COCC1NC(=O)C1(C)CC(c2cc(F)cc(F)c2)=NO1 (stereo not shown) [Example I-07, 3-(3,5-difluorophenyl)-5-methyl-N-[4-(methylcarbamoyl)tetrahydrofuran-3-yl]-4H-isoxazole-5-carboxamide] | 80 |  |  |  |  |  |  |  |  |  |  |  |  |  |  |  |  | 100 |  |  | Pre-emergence herbicidal activity in % against ABUTH (Abutilon theophrasti [26]): 100%; pest or weed control at 320 g/ha (Polygonum convolvulus [27]): 80% |
